# Experimental data published in PubChem BioAssay (NCI).
#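 Compound exposure: 48 hours, 5 concentrations, 96-well plates. TGI marks complete inhibition of growth.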
# Assays:
# Assay in all cases: NCI tumour cell line growth inhibition, 48 h
# [1] = system: NCI-H226 lung
# [2] = system: M19-MEL melanoma
# [3] = system: SR leukemia
# [4] = system: SF-268 CNS
# [5] = system: SF-295 CNS
# [6] = system: DLD-1 colon
# [7] = system: OVCAR-5 ovarian
# [8] = system: 786-0 renal
# [9] = system: HOP-92 NSCLC
# [10] = system: SK-MEL-2 melanoma
# [11] = system: EKVX NSCLC
# [12] = system: HOP-18 NSCLC
# [13] = system: XF 498 CNS
# [14] = system: MALME-3M melanoma
# [15] = system: NCI-H460 lung
# [16] = system: KM20L2 colon
# [17] = system: CAKI-1 renal
# [18] = system: RXF 393 renal
# [19] = system: K-562 leukemia
# [20] = system: A498 renal
# [21] = system: KM12 colon
# [22] = system: SNB-19 CNS
# [23] = system: SF-539 CNS
# [24] = system: UACC-257 melanoma
# [25] = system: NCI-H522 lung
# [26] = system: UACC-62 melanoma
# [27] = system: HCT-116 colon
# [28] = system: SNB-75 CNS
# [29] = system: IGROV1 ovarian
# [30] = system: SW-620 colon
# [31] = system: UO-31 renal
# [32] = system: ACHN renal
# [33] = system: RPMI-8226 leukemia
# [34] = system: SK-OV-3 ovarian
# [35] = system: DMS 273 small cell lung
# [36] = system: TK-10 renal
# [37] = system: COLO 205 colon
# [38] = system: OVCAR-4 ovarian
# [39] = system: A549 NSCLC
# [40] = system: HT29 colon
# [41] = system: HCT-15 colon
# [42] = system: HCC-2998 colon
# [43] = system: CCRF-CEM leukemia
# [44] = system: HL-60(TB) leukemia
# [45] = system: SK-MEL-5 melanoma
# [46] = system: MOLT-4 leukemia
# [47] = system: OVCAR-3 ovarian
# [48] = system: NCI-H23 lung
# [49] = system: HOP-62 NSCLC
# [50] = system: U251 CNS
# [51] = system: SN12C renal
# [52] = system: SNB-78 CNS
# [53] = system: M14 melanoma
# [54] = system: LXFL 529 NSCLC
compound,measurement,setting,value
CCC/C=C\C=C\C1(NS(=O)(=O)c2ccc(C)cc2)CCC(C(C)(C)C)CC1 (centres undefined),TGI,[1],38 µM
same,TGI,[2],44.9 µM
same,TGI,[3],14.8 µM
same,TGI,[4],40 µM
same,TGI,[5],51.2 µM
same,TGI,[6],45.3 µM
same,TGI,[7],43.8 µM
same,TGI,[8],29.9 µM
same,TGI,[9],50.9 µM
same,TGI,[10],29 µM
same,TGI,[11],62.6 µM
same,TGI,[12],> 100 µM
same,TGI,[13],35.7 µM
same,TGI,[14],47.9 µM
same,TGI,[15],36.2 µM
same,TGI,[16],35.6 µM
same,TGI,[17],61.9 µM
same,TGI,[18],32.3 µM
same,TGI,[19],34.2 µM
same,TGI,[20],46.4 µM
same,TGI,[21],31.9 µM
same,TGI,[22],> 100 µM
same,TGI,[23],> 100 µM
same,TGI,[24],39 µM
same,TGI,[25],12.1 µM
same,TGI,[26],88.7 µM
same,TGI,[27],38.3 µM
same,TGI,[28],72.1 µM
same,TGI,[29],87.3 µM
same,TGI,[30],35.7 µM
same,TGI,[31],59 µM
same,TGI,[32],53.7 µM
same,TGI,[33],27.2 µM
same,TGI,[34],65.2 µM
same,TGI,[35],27.9 µM
same,TGI,[36],69.9 µM
same,TGI,[37],28.1 µM
same,TGI,[38],49.4 µM
same,TGI,[39],38.6 µM
same,TGI,[40],30.2 µM
same,TGI,[41],43.8 µM
same,TGI,[42],34.3 µM
same,TGI,[43],24.2 µM
same,TGI,[44],23.2 µM
same,TGI,[45],33.3 µM
same,TGI,[46],24 µM
same,TGI,[47],21.9 µM
same,TGI,[48],55 µM
same,TGI,[49],56.7 µM
same,TGI,[50],25.9 µM
same,TGI,[51],23.5 µM
same,TGI,[52],72.3 µM
same,TGI,[53],37.1 µM
same,TGI,[54],> 100 µM
